≈ marks a conversion by molar mass, not a printed value. Like-named read-outs stand apart in the source and are kept apart here.
Columns and labels:
[1] = test system: Klebsiella pneumoniae; experiment: MIC and MBC, broth micro-dilution; assay type: cell-based; settings: K. pneumoniae; for MIC: 24 h
[2] = test system: MCF-7 (human breast adenocarcinoma cells); experiment: MTT antiproliferative assay; assay type: cell-based; settings: MCF-7, 48 h, mean ± SD
[3] = test system: normal human dermal fibroblasts (NHDF); experiment: MTT assay in non-malignant cells; assay type: cell-based; settings: 48 h, mean ± SD
[4] = test system: U251 (glioblastoma cancer); experiment: MTT antiproliferative assay; assay type: cell-based, human; settings: U251, 48 h, mean ± SD
[5] = test system: Pseudomonas aeruginosa; experiment: MIC and MBC, broth micro-dilution; assay type: cell-based
[6] = test system: Staphylococcus epidermidis; experiment: MIC and MBC, broth micro-dilution; assay type: cell-based; settings: S. epidermidis; for MIC: 24 h
[7] = test system: Bacillus sphaericus; experiment: MIC and MBC, broth micro-dilution; assay type: cell-based; settings: B. sphaericus; for MIC: 24 h
[8] = test system: Staphylococcus aureus; experiment: MIC and MBC, broth micro-dilution; assay type: cell-based; settings: S. aureus; for MIC: 24 h
[9] = test system: Panc-1 (pancreatic cancer); experiment: MTT antiproliferative assay; assay type: cell-based, human; settings: mean ± SD
[10] = test system: Escherichia coli; experiment: MIC and MBC, broth micro-dilution; assay type: cell-based; settings: E. coli; for MIC: 24 h
[11] = test system: DU-145 (prostate cancer); experiment: MTT antiproliferative assay; assay type: cell-based, human; settings: DU-145, 48 h, mean ± SD
[12] = test system: U251 cell line; experiment: Cytotoxicity of selenous acid (MTS assay, Figure S60); assay type: cell-based, human; settings: U251, 48 h, 1–100 µM
Excerpt: The striking difference in the potency of Se salts as compared to their corresponding parent compounds raises a question: Could the release of the Se salt part of the molecules be solely responsible for these activities? Nevertheless, after thoroughly analyzing the in vitro antiproliferative activities and the structure of the reported compounds, our initial hypothesis is that the antitumor activity of the new selenium salts might not be due to the release of the Se inorganic, as evinced by the following four experimental outcomes: (1) All the salt compounds should have shown similar efficacy at the same molar concentrations if the toxicity was solely due to the release of the Se salt part. […] To confirm this hypothesis and due to the scarce number of reported antitumor activities of selenous acid, we evaluated H2SeO3 in the U251 cell line in our experimental setup. […] Since the IC50 value of selenous acid is in the range of what is observed for SLT-1-6 (Table 3), the increased antiproliferative activity of the salts might or might not be linked to the release of the Se salt fragment of the molecule. […] Further studies are needed to fully characterize and understand the behavior of these selenous salts.
Figure S58. Dose-response curves of SLT-6 in all the cell lines present in the NCI panel.
Figure S59. […]
Cell viability was assessed using an MTS assay. […]

[13] = test system: Panc-1 cells; settings: several experimental conditions; cited from earlier work
[14] = Klebsiella pneumoniae, read-out: MBC
[15] = Klebsiella pneumoniae, read-out: MIC
[16] = Pseudomonas aeruginosa; P. aeruginosa; read-out: MBC
[17] = Staphylococcus epidermidis, read-out: MIC
[18] = Staphylococcus epidermidis, read-out: MBC
[19] = Lysinibacillus sphaericus, read-out: MIC
[20] = Lysinibacillus sphaericus, read-out: MBC
[21] = Staphylococcus aureus, read-out: MIC
[22] = Staphylococcus aureus, read-out: MBC
[23] = Escherichia coli, read-out: MIC
[24] = Escherichia coli, read-out: MBC
[25] = Pseudomonas aeruginosa; P. aeruginosa, 24 h; read-out: MIC

| SMILES | MBC [1, 14] | MIC [1, 15] | IC50 [2] | IC50 [4] | MBC [5, 16] | MBC [6, 18] | MIC [7, 19] | MBC [7, 20] | MIC [8, 21] | MBC [8, 22] | IC50 ([9]; Homo sapiens, PANC-1, 48 h) | MIC [10, 23] | MBC [10, 24] | IC50 [11] | MBC [1] | IC50 [3] | MIC ([5]; P. aeruginosa, 24 h) | MBC [6] | MIC [6] | MBC [8] | also measured |
| --- | --- | --- | --- | --- | --- | --- | --- | --- | --- | --- | --- | --- | --- | --- | --- | --- | --- | --- | --- | --- | --- |
| COc1cc(Cc2cnc(N)nc2N)cc(OC)c1OC [AB-2, trimethoprim] | 12.5 µg/mL (≈ 43.1 µM) | 3.13 µg/mL (≈ 10.8 µM) | > 100 µM | > 100 µM | > 200 µg/mL | > 200 µg/mL | 1.56 µg/mL (≈ 5.37 µM) | 6.25 µg/mL (≈ 21.5 µM) | 1.56 µg/mL (≈ 5.37 µM) | 3.13 µg/mL (≈ 10.8 µM) | > 100 µM | 1.56 µg/mL (≈ 5.37 µM) | 6.25 µg/mL (≈ 21.5 µM) | > 100 µM | – | – | – | – | – | – | IC50 ([3]; Homo sapiens): 6.47 ± 1.79 µM; MIC ([5]; Pseudomonas aeruginosa, 24 h, P. aeruginosa, 24 h; read-out: MIC): 50 µg/mL (≈ 172 µM); MIC [6, 17]: > 200 µg/mL |
| Nc1ccc(S(=O)(=O)c2ccc(N)cc2)cc1 [AB-3, dapsone] | – | – | > 100 µM | > 100 µM | – | – | – | – | – | – | > 100 µM | – | – | > 100 µM | >200 µg/mL | > 100 µM | >200 µg/mL | >200 µg/mL | >200 µg/mL | >200 µg/mL | MIC [1]: >200 µg/mL; MBC ([5]; P. aeruginosa): >200 µg/mL; MBC [7]: >200 µg/mL; MIC [7]: >200 µg/mL; MIC [8]: >200 µg/mL; MBC [10]: >200 µg/mL; MIC [10]: >200 µg/mL |
| Nc1ccc(S(=O)(=O)Nc2ncccn2)cc1 [AB-4, sulfadiazine] | > 200 µg/mL | > 200 µg/mL | > 100 µM | > 100 µM | > 200 µg/mL | > 200 µg/mL | > 200 µg/mL | > 200 µg/mL | > 200 µg/mL | > 200 µg/mL | – | > 200 µg/mL | > 200 µg/mL | > 100 µM | – | > 100 µM | 50 µg/mL (≈ 200 µM) | – | >200 µg/mL | – | IC50 ([9]; Panc-1, 48 h): > 100 µM |
| NNC(=O)c1ccncc1 [AB-5, isoniazid] | > 200 µg/mL | > 200 µg/mL | > 100 µM | > 100 µM | > 200 µg/mL | > 200 µg/mL | > 200 µg/mL | > 200 µg/mL | > 200 µg/mL | > 200 µg/mL | > 100 µM | > 200 µg/mL | > 200 µg/mL | 99.92 ± 0.2 µM | – | 41.2 ± 12.1 µM | – | – | – | – | MIC [5, 25]: > 200 µg/mL; MIC [6, 17]: > 200 µg/mL |
| CNC(C)C1CCC(N)C(OC2C(N)CC(N)C(OC3OCC(C)(O)C(NC)C3O)C2O)O1 (stereo not drawn) [AB-6, gentamicin] | – | – | > 100 µM | > 100 µM | 12.5 µg/mL (≈ 26.2 µM) | – | 0.2 µg/mL (≈ 0.419 µM) | 0.78 µg/mL (≈ 1.63 µM) | 25 µg/mL (≈ 52.3 µM) | – | – | 25 µg/mL (≈ 52.3 µM) | 25 µg/mL (≈ 52.3 µM) | > 100 µM | 3.13 µg/mL (≈ 6.55 µM) | > 100 µM | – | 0.39 µg/mL (≈ 0.817 µM) | 0.39 µg/mL (≈ 0.817 µM) | 50 µg/mL (≈ 105 µM) | MIC ([1]; Klebsiella pneumoniae): 1.56 µg/mL (≈ 3.27 µM); MIC [5, 25]: 6.56 µg/mL (≈ 13.7 µM); IC50 ([9]; Panc-1, 48 h): > 100 µM |
| O=[Se](O)O [H2SeO3, selenous acid] | – | – | – | – | – | – | – | – | – | – | – | – | – | – | 200 µg/mL (≈ 1550 µM) | – | 200 µg/mL (≈ 1550 µM) | 200 µg/mL (≈ 1550 µM) | 100 µg/mL (≈ 775 µM) | 200 µg/mL (≈ 1550 µM) | MIC [1]: 100 µg/mL (≈ 775 µM); MBC ([5]; P. aeruginosa): >200 µg/mL; MBC [7]: 200 µg/mL (≈ 1550 µM); MIC [7]: 100 µg/mL (≈ 775 µM); MIC [8]: 100 µg/mL (≈ 775 µM); IC50 [12]: 1.04 µM; MBC [10]: >200 µg/mL; MIC [10]: 200 µg/mL (≈ 1550 µM) |
| O=[Se]([O-])[O-].[Na+].[Na+] [sodium selenite] | – | – | – | – | – | – | – | – | – | – | – | – | – | – | – | – | – | – | – | – | IC50 [13]: low micromolar range |

Source: publication PMC12029531, “Selenium in Action: Exploring the Biological Wonders of Hydroselenite Salts” (Molecules, 2025)
